From patent US20050148656A1, “Carboxylic derivates” (priority 2003, published 2005)

Key:
[1] = system: PPARγ; assay: Luciferase reporter assay in transiently transfected cells, PPARγ activation; format: cell-based, human and murine
Description: (§1) The compounds of the invention were tested in the assays described in WO 03/051821.
(§2) Stock solutions of compounds in DMSO were diluted in appropriate concentration ranges in master plates. From master plates, compounds were diluted in culture media to obtain test compound solutions for final doses.
(§3) After adjustment of the amount of cell medium to 75 μl in each well, 50 μl test compound solution was added. Transiently transfected cells were exposed to compounds for about 24 hours before the luciferase detection assay was performed. For luciferase assays, 100 μl of assay reagent was added manually to each well and plates were left for approximately 20 minutes in order to allow lysis of the cells. After lysis, luciferase activity was measured in a 1420 Multiwell counter, Victor, from Wallach.
(§4) The TZD pioglitazone was used as reference substance for activation of both human and murine PPARγ. 5,8,11,14-Eicosatetrayonic acid (ETYA) was used as reference substance for human PPARα.
(§5) For calculation of EC50 values, a concentration-effect curve was established. Values used were derived from the average of two or three independent measurements (after subtraction of the background average value) and were expressed as the percentage of the maximal activation obtained by the reference compound. Values were plotted against the logarithm of the test compound concentration. EC50 values were estimated by linear […] between the data points and calculating the concentration required to achieve 50% of the maximal activation obtained by the reference compound.

[2] = biological target: T1, human PPARα (Homo sapiens, UniProt Q07869); assay: Luciferase reporter assay in transiently transfected cells, PPARα activation; format: cell-based; conditions: 50% of maximal activation obtained by reference compound (ETYA); about 24 hours exposure
T1 construct: expressed in transfected cells
T1 sequence (Q07869 1-468): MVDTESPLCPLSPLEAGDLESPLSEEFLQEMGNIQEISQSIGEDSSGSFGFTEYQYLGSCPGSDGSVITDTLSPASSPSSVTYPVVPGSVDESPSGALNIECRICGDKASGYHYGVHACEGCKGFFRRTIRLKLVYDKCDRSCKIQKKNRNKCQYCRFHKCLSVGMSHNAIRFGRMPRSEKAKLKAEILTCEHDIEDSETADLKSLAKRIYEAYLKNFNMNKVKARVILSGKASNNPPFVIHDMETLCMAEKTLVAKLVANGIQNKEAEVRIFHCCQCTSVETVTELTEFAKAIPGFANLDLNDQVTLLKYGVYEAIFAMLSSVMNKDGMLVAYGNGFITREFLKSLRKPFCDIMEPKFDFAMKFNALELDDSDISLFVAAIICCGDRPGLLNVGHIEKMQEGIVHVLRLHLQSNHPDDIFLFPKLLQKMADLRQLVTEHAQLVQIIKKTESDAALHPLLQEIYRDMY
Description: as §1, §2, §3, §4, §5

Row | EC50 [2] | SMILES | ratio EC50 (PPARγ):EC50 (PPARα) [1]
1 | 8 nM | CCO[C@@H](Cc1ccc(OCC(=O)N(Cc2ccc(Cl)cc2)Cc2ccc(C(C)(C)C)cc2)cc1)C(=O)O [Example 13, (2S)-3-(4-{2-[(4-tert-Butylbenzyl)(4-chlorobenzyl)amino]-2-oxoethoxy}phenyl)-2-ethoxypropanoic acid] | >400
2 | 3 nM | CCO[C@@H](Cc1ccc(OCC(=O)N(Cc2ccc(Cl)cc2)Cc2ccc(Cl)cc2)cc1)C(=O)O [Example 12, (2S)-3-(4-{2-[bis(4-Chlorobenzyl)amino]-2-oxoethoxy}phenyl)-2-ethoxypropanoic acid] | >1000
3 | 3 nM | CCO[C@@H](Cc1ccc(OCC(=O)N(Cc2ccc(C(F)(F)F)cc2)Cc2ccc(C(F)(F)F)cc2)cc1)C(=O)O [Example 15, (2S)-3-[4-(2-{bis[4-(Trifluoromethyl)benzyl]amino}-2-oxoethoxy)phenyl]-2-ethoxypropanoic acid] | >900
